Here are results for 5 molecules from PMC8348200, “Selective Antifungal Activity and Fungal Biofilm Inhibition of Tryptophan Center Symmetrical Short Peptide” (International Journal of Molecular Sciences, 2021).

Converted amounts (≈) assume the structure as drawn. Read-outs that look alike come from different tables or passages of the source. Residues, ends and D or L forms follow the SMILES beside them. No end group written: not given here.

Series [1] has as its system Fluconazole-resistant C. albicans 56214. Briefly: microbe, parasite or virus in culture. The note with it: fluconazole-resistant strain; RPMI 1640 buffered with MOPS, 28 °C 48 h, 0.5-128 μM. How it is done: The peptide antimicrobial activity was determined according to the Clinical and Laboratory Standards Institute method, with modifications. […] Because the light has different refract in different liquids. The standard solution is composed of sulfuric acid and barium chloride, which is equivalent to 1*10^8 CFU fungi. After cultivation, the growth of fungi and bacteria was measured by TECAN automatic enzyme label instrument. Briefly, bacterial cells were cultured in MHB until logarithmic phase, yeast colonies cultured in Yeast Peptone Dextrose Agar (YPDA) were picked and diluted in RPMI 1640 growth medium buffered with morpholine propane sulfonic acid (MOPS), and then 50 μL of bacterial or fungi cell solution (0.5–1 × 10^4 CFU/mL) was added to each well of sterile 96-well plates. Each well contained 50 μL of AMPs dissolved in BSA; the final concentrations of the peptides ranged from 0.5 to 128 μM. […] Broth with microbial cells and un-inoculated broth were used as positive control and negative controls, respectively.

Series [2] relates to L. rhamnosus 1.0385. Nature of the series: microbe, parasite or virus in culture. In kind it is cell-based, Lactobacillus rhamnosus. The note with it: 24 h; read-out: MICs, L. rhamnosus 1.0385. Here is the method: (§1) The peptide antimicrobial activity was determined according to the Clinical and Laboratory Standards Institute method, with modifications. Bacteria concentration was measured by ultraviolet spectrophotometer, and fungi concentration was confirmed by McMillan’s turbidimetric method, which compared the fungi solution with the standard McFarland tube in front of the horizontal line on the paper with the naked eye. Because the light has different refract in different liquids. The standard solution is composed of sulfuric acid and barium chloride, which is equivalent to 1*10^8 CFU fungi. After cultivation, the growth of fungi and bacteria was measured by TECAN automatic enzyme label instrument. Briefly, bacterial cells were cultured in MHB until logarithmic phase, yeast colonies cultured in Yeast Peptone Dextrose Agar (YPDA) were picked and diluted in RPMI 1640 growth medium buffered with morpholine propane sulfonic acid (MOPS), and then 50 μL of bacterial or fungi cell solution (0.5–1 × 10^4 CFU/mL) was added to each well of sterile 96-well plates. Each well contained 50 μL of AMPs dissolved in BSA; the final concentrations of the peptides ranged from 0.5 to 128 μM. The lowest concentration of peptide with no microbial growth being observed were measured after incubation at 37 °C for 24 h for bacteria or at 28 °C for 48 h for fungi. Broth with microbial cells and un-inoculated broth were used as positive control and negative controls, respectively.

Series [3] has as its system L. rhamnosus 1.0911. Briefly: microbe, parasite or virus in culture. In kind it is cell-based, Lactobacillus rhamnosus. The note with it: 24 h; read-out: MICs, L. rhamnosus 1.0911. Here is the method: as §1
For series [4], the system named is C. albicans Isolated from Alveolar Fluid. Nature of the series: microbe, parasite or virus in culture. It counts as cell-based, Candida albicans. Conditions: RPMI 1640 buffered with MOPS, 28 °C 48 h, 0.5-128 μM; read-out: MICs, C. albicans Isolated from Alveolar Fluid. How it is done: as §1
Series [5] deals with C. albicans cgmcc 2.2086. Nature of the series: microbe, parasite or virus in culture. Conditions: cgmcc 2.2086, 48 h; read-out: MICs, C. albicans cgmcc 2.2086. It counts as cell-based, Candida albicans. How it is done: as §1
The subject of series [6] is C. albicans SP3937. Nature of the series: microbe, parasite or virus in culture. In kind it is cell-based, Candida albicans. The note with it: clinical isolate; RPMI 1640 buffered with MOPS, 28 °C 48 h, 0.5-128 μM; read-out: MICs, C. albicans SP3937. How it is done: as §1
Series [7] concerns C. albicans SP3903. Nature of the series: microbe, parasite or virus in culture. Conditions: clinical isolate; RPMI 1640 buffered with MOPS, 28 °C 48 h, 0.5-128 μM; read-out: MICs, C. albicans SP3903. In kind it is cell-based, Candida albicans. How it is done:
as §1

For series [8], the system named is C. albicans SP3902. Nature of the series: microbe, parasite or virus in culture. Conditions: clinical isolate; RPMI 1640 buffered with MOPS, 28 °C 48 h, 0.5-128 μM; read-out: MICs, C. albicans SP3902. In kind it is cell-based, Candida albicans. How it is done:
as §1

In series [9] the test system is C. parapsilosis cgmcc 2.3989. Nature of the series: microbe, parasite or virus in culture. It counts as cell-based. Conditions: cgmcc 2.3989, 48 h; read-out: MICs, C. parapsilosis cgmcc 2.3989. Here is the method: as §1
For series [10], the system named is L. plantarum 7469. Nature of the series: microbe, parasite or virus in culture. It counts as cell-based. Conditions: 24 h; read-out: MICs, L. plantarum 7469. Here is the method:
as §1

For series [11], the system named is C. tropicalis cgmcc 2.1975. Nature of the series: microbe, parasite or virus in culture. It counts as cell-based. The note with it: cgmcc 2.1975, 48 h; read-out: MICs, C. tropicalis cgmcc 2.1975. How it is done: as §1
In series [12] the test system is E. coli 25922. Briefly: microbe, parasite or virus in culture. It counts as cell-based, Escherichia coli. Conditions: 25922, 24 h; read-out: MICs, E. coli 25922. Here is the method:
as §1

Series [13] deals with E. coli UB1005. Nature of the series: microbe, parasite or virus in culture. Conditions: UB1005, 24 h; read-out: MICs, E. coli UB1005. It counts as cell-based, Escherichia coli. Here is the method: as §1
For series [14], the system named is S. aureus 25923. Nature of the series: microbe, parasite or virus in culture. Conditions: 25923, 24 h; read-out: MICs, S. aureus 25923. It counts as cell-based, Staphylococcus aureus. Here is the method: as §1
For series [15], the system named is S. aureus 29213. Briefly: microbe, parasite or virus in culture. In kind it is cell-based, Staphylococcus aureus. The note with it: 29213, 24 h; read-out: MICs, S. aureus 29213. Here is the method: as §1
For series [16], the system named is S. thermophilus YM-C. Briefly: microbe, parasite or virus in culture. It counts as cell-based, Streptococcus thermophiles. The note with it: 24 h; read-out: MICs, S. thermophilus YM-C. How it is done:
as §1

Series [17] concerns human red blood cells. Briefly: Hemolysis assay. It counts as cell-based. Conditions: at the highest tested concentration; fresh human erythrocytes. Here is the method: The cytotoxicity of the peptides was determined with three cell types, including the Pig kidney cells, HEK 293T cells and fresh, healthy human red blood cells (donated by Zhihua Wang) via the MTT dye reduction assay and hemolysis assay.

Series [18] relates to C.albicans cgmcc 2.2086. Nature of the series: microbe, parasite or virus in culture. The note with it: cgmcc 2.2086, 24 h. It counts as cell-based, Candida albicans. How it is done:
as §1, with “The lowest concentration of peptide with no microbial growth being observed were measured after incubation at 37 °C for 24 h for bacteria or at 28 °C for 48 h for fungi.” left out
The salt and acid sensitivities of the peptides were measured using with modified method to test MIC values; tested peptides were incubated in the presence of different final concentrations of physiological salts. The subsequent steps were consistent with the MIC determination protocol.

Regarding `CC(C)C[C@H](NC(=O)[C@H](CS)NC(=O)[C@H](CC(C)C)NC(=O)[C@H](Cc1c[nH]c2ccccc12)NC(=O)[C@H](CC(C)C)NC(=O)[C@H](CS)NC(=O)[C@H](CC(C)C)NC(=O)[C@H](CCCNC(=N)N)NC(=O)[C@@H](N)CCCNC(=N)N)C(=O)N[C@@H](CCCNC(=N)N)C(=O)N[C@@H](CCCNC(=N)N)C(N)=O` [Peptide P3] (H-RRLCLWLCLRR-NH2; N-terminus assumed), the “MICs, C. albicans 56214” value in series [1] is 16 µM. For the same molecule, the MIC in series [2] is recorded as more than 128 µM; in series [3], 128 µM (≈ 190 µg/mL); in series [4], 16 µM (≈ 23.8 µg/mL); in series [5], 8 µM (≈ 11.9 µg/mL); in [6], 16 µM (≈ 23.8 µg/mL); in series [7], 16 µM (≈ 23.8 µg/mL). Besides, the MIC worked out at 16 µM (≈ 23.8 µg/mL) in series [8]; 16 µM (≈ 23.8 µg/mL) in series [9]; 128 µM (≈ 190 µg/mL) in series [10]; 4 µM (≈ 5.95 µg/mL) in series [11]; 4 µM (≈ 5.95 µg/mL) in [12]; 2 µM (≈ 2.97 µg/mL) in [13]. Further, the MIC in series [14] was 8 µM (≈ 11.9 µg/mL); in series [15], 8 µM (≈ 11.9 µg/mL); in series [16], more than 128 µM.
Turning to RRLSLWLSLRR-NH2 [Peptide P2], in [1], the “MICs, C. albicans 56214” value is 8 µM. Moreover, the MIC is 8 µM in series [2]; 8 µM in series [3]; 8 µM in series [4]; 4 µM in [5]; 8 µM in series [6]; 16 µM in series [7]. In addition, the MIC in [8] is recorded as 16 µM; in [9], 8 µM; in series [10], 128 µM; in series [11], 2 µM; in series [12] it was 4 µM; in series [13], 2 µM. Also, the MIC in [14] was 16 µM; in series [15] it was 4 µM; in [16] it was more than 128 µM.
For RRISIWISIRR-NH2 [Peptide P17], in [1], the “MICs, C. albicans 56214” value came to 4 µM. The MIC in [2] was 8 µM; in series [3] it was 32 µM; in series [4] it was 8 µM; in series [5], 4 µM; in series [6] it was 4 µM; in [7], 2 µM. Moreover, the MIC is 4 µM in series [8]; 1 µM in [9]; more than 128 µM in series [10]; 1 µM in series [11]; 128 µM in series [12]; 16 µM in series [13]. Besides, the MIC in series [14] is on record as 128 µM; in series [15], 128 µM; in series [16], more than 128 µM.
Regarding RRFSFWFSFRR-NH2 [Peptide P19], in series [17], the hemolysis result was “less than 5%”. Also, in series [1], the “MICs, C. albicans 56214” value worked out at 4 µM. Besides, the MIC was more than 128 µM in [2]; more than 128 µM in series [3]; 4 µM in [18] (read-out: MIC in acid environment, pH = 6); 4 µM in series [18] (read-out: MIC in the presence of FeCl3); 4 µM in series [18] (read-out: MIC in the presence of KCl); 4 µM in series [18] (read-out: MIC in the presence of MgCl2). Besides, the MIC in series [18] (read-out: MIC in the presence of NH4Cl) was found to be 4 µM; in series [18] (read-out: MIC in the presence of NaCl), 32 µM; in [18] (read-out: MIC in the presence of ZnCl2) it was 4 µM; in [18] (read-out: MIC, Control) it was 2 µM; in series [4], 4 µM; in [5] it was 2 µM. Moreover, the MIC is given as 4 µM in series [6]; 2 µM in series [7]; 4 µM in series [8]; 2 µM in [9]; more than 128 µM in series [10]; 2 µM in series [11]. The MIC in series [12] is 128 µM; in [13] it was 128 µM; in series [14], more than 128 µM; in [15], 128 µM; in series [16], more than 128 µM.
Regarding RRLALWLALRR-NH2 [Peptide P1], the “MICs, C. albicans 56214” value in series [1] was determined as 16 µM. Also, the MIC in series [2] is on record as 8 µM; in [3], 64 µM; in series [4], 8 µM; in [5] it was 8 µM; in series [6], 16 µM; in [7], 16 µM. The MIC in [8] was 32 µM; in series [9] it was 8 µM; in series [10] it was more than 128 µM; in series [11] it was 2 µM; in [12] it was 4 µM; in [13], 2 µM. Further, the MIC in [14] was 8 µM; in series [15] it was 8 µM; in series [16] it was 128 µM.
